Source: patent publication US11198704B2, “Butane-tetraol-based amphiphiles and uses thereof” (Industry-University Cooperation Foundation Hanyang …, priority 2016, dated 2021)

Tests used:
[1] = target: T1, human β2 adrenergic receptor (β2AR) (Homo sapiens, UniProt P07550); assay: Structural stability of β2AR, [3H]-dihydroalprenolol ([3H]-DHA) binding; format: biochemical; conditions: BTMs without CHS, DDM with CHS
T1 construct: made in house
Method: An experiment for determining the structural stability of a human β2 adrenergic receptor (β2AR) and a G-protein-coupled receptor (GPCR) by BTMs was performed. That is, a receptor purified with DDM was diluted with a buffer solution containing only each of the BTMs without cholesteryl hemisuccinate (CHS) or a buffer solution containing DDM with CHS. The final compound concentration was CMC+0.2% by weight, and the ligand-binding characteristics of the receptor were determined through [^3H]-dihydroalprenolol ([^3H]-DHA) binding.
Specifically, a radioactive ligand binding test was performed using the following method. β2AR was purified with 0.1% DDM (D. M. Rosenbaum et al., Science, 2007, 318, 1266-1273.), and finally concentrated to approximately 10 mg/mL (approximately 200 μM). A master binding mixture containing 10 nM [^3H]-dihydroalprenolol (DHA) supplemented with 0.5 mg/mL BSA in each 0.2% amphiphilic compound (DDM or BTMs) was prepared using the β2AR purified with DDM. The ligand-binding characteristics of the receptor purified with the amphiphilic compound at 0.2 pmol was monitored at regular intervals while the receptor was incubated at room temperature for 3 days. The ligand-binding characteristics of the receptor were determined using a water-soluble radioactive ligand binding assay as will be described below. The receptor purified with DDM or each of the BTMs was incubated with 10 nM [^3H]-DHA at room temperature for 30 minutes. The mixture was loaded on a G-50 column, and flow-through fractions were collected using 1 mL of a binding buffer (20 mM HEPES (pH 7.5) supplemented with 0.5 mg/mL BSA and 20×CMC of each amphiphilic compound, 100 mM NaCl). Then, the G-50 column was filled with 15 mL of a scintillation fluid. Receptor-bound [^3H]-DHA was counted using a scintillation counter (Beckman). Non-specific binding of [^3H]-DHA was determined by adding 2 μM of alprenolol (Sigma) in the same binding reaction. The binding affinity of [^3H]-DHA was plotted on a column graph, and each experiment was performed in triplicate.

[2] = target: T2, melibiose permease (MelB) (Salmonella typhimurium, UniProt P30878); assay: MelB extraction and thermostability, SDS-PAGE and Western Blotting of the dissolved protein; conditions: 90 minutes, detergent 1.5% by weight
T2 construct: made in house; host or cells: E. coli DW2
Method: The MelB protein was extracted from a membrane using BTM-C11s or DDM, and the amount and structure of the extracted protein were analyzed through SDS-PAGE and Western Blotting. A concentration of the amphiphilic compound used was 1.5% by weight, and the protein was extracted at four temperatures (0, 45, 55, and 65° C.), and incubated at the same temperature for 90 minutes. Thereafter, an amount of the protein remaining dissolved in an aqueous solution was measured to evaluate two types of performance: protein extraction efficiency and stabilization ability of the compound. The amount of the protein extracted and stabilized with each of the amphiphilic molecules is expressed as a relative value (%) of the entire amount of proteins contained in a membrane sample which is not treated with the amphiphilic molecules.
Specifically, Salmonella typhimurium melibiose permease (MelBSt) having a 10-His tag at the C-terminus thereof was expressed in E. coli DW2 cells (AmelB and AlacZY) using a plasmid pK95ΔAHB/WT MelBSt/CH10. Cell growth and membrane preparation were performed according to the method disclosed in the article by A. S. Ethayathulla et al. (Nat. Commun. 2014, 5, 3009). A protein assay was performed using a Micro BCA kit (Thermo Scientific, Rockford, Ill.). An effect of the isomers (A-BTM-C11, B-BTM-C11, and M-BTM-C11) of the BTM-C11s or DDM on the MelBSt stability was evaluated using the protocol disclosed in P. S. Chae et al. (Nat. Methods 2010, 7, 1003-1008). A membrane sample (having a final protein concentration of 10 mg/mL) containing MelBSt was incubated at four temperatures (0, 45, 55, and 65° C.) for 90 minutes in a solubilizing buffer (20 mM sodium phosphate, pH 7.5, 200 mM NaCl, 10% glycerol, and 20 mM melibiose) containing 1.5% (w/v) DDM or the BTM-C11 isomers. To remove insoluble matter, the sample was ultracentrifuged at 355,590 g at 4° C. for 45 minutes using a Beckman Optima™ MAX ultracentrifuge equipped with a TLA-100 rotor. The dissolved fraction was separated by 16% SDS-PAGE, and then immunoblotted with a Penta-His-HRP antibody (Qiagen, Germantown, Md.). The membrane fraction containing 20 μg of untreated proteins was used to represent the entire MelB, and the treated samples were loaded in each well at the same volume. MelBSt was measured by an ImageQuant LAS 4000 Biomolecular imager (GE Health Care Life Sciences) using a SuperSignal West Pico chemiluminescent substrate.

[3] = test system: leucine transporter (LeuT); assay: Structural stability of LeuT, [3H]-Leu binding by scintillation proximity assay (SPA); format: biochemical, Aquifex aeolicus; conditions: CMC+0.04% or CMC+0.2% by weight; room temperature; 12 days incubation
Method: An experiment for measuring structural stability of a LeuT protein by BTMs in an aqueous solution was performed. Each amphiphilic compound was used at a concentration of (a) CMC+0.04% by weight or (b) CMC+0.2% by weight, and the ligand-binding characteristics of LeuT were determined through a scintillation proximity assay (SPA) using [^3H]-Leu. The measurement was performed at room temperature at regular intervals during an incubation period of 12 days.
Specifically, thermophilic bacteria (Aquifex aeolicus)-derived wild-type leucine transporter (LeuT) were purified using the method as described above (G. Deckert, et al., Nature 1998, 392, 353-358). LeuT was expressed in E. coli C41 (DE3) transformed with pET16b encoding a C-terminal 8×His-tagged transporter (an expression plasmid was provided from Dr. E. Gouaux, Vollum Institute, Portland, Oreg., USA). […] Protein samples were stored at room temperature for 12 days, and centrifuged for a given time, and the characteristics of the proteins were determined by measuring a [^3H]-leucine binding ability using SPA. […] The entire [^3H]-leucine binding affinity to each sample was measured using a MicroBeta liquid scintillation counter (PerkinElmer).

T2 sequence (P30878 whole entry): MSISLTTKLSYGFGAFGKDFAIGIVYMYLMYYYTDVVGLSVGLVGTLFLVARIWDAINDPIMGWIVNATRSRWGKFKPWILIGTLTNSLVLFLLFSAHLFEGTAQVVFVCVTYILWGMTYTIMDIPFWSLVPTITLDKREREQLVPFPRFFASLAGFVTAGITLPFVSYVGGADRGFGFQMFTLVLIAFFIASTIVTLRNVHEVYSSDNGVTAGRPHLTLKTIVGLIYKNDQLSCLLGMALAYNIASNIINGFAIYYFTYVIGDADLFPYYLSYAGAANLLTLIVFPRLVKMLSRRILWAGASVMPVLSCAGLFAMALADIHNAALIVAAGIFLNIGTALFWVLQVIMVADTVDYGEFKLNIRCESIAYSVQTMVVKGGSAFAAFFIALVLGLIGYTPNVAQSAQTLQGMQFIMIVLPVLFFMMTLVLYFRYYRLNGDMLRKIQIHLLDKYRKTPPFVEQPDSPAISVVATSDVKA
T1 sequence (P07550 whole entry): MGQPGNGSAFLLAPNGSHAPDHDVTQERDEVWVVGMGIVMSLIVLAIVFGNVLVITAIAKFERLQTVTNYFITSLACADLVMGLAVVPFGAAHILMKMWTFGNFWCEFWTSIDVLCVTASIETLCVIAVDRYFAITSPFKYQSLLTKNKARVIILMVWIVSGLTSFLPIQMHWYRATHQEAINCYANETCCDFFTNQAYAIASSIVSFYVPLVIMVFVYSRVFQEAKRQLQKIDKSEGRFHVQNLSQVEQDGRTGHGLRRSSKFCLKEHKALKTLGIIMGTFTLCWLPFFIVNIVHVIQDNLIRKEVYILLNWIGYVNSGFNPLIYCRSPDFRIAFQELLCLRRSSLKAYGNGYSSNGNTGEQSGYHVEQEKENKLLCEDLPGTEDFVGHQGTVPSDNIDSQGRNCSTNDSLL

CCCCCCCCCCCCO[C@@H]1O[C@H](CO)[C@@H](O[C@H]2O[C@H](CO)[C@@H](O)[C@H](O)[C@H]2O)[C@H](O)[C@H]1O [DDM, n-dodecyl-β-D-maltopyranoside, reference compound]
initial ligand-binding characteristics of β2AR ([3H]-DHA) ([1]; CMC+0.2% by weight): high ability to bind to a ligand
remaining ligand-binding ability of β2AR, % of initial ([1]; after 3 days of incubation at room temperature): 10%
MelB protein extraction efficiency / dissolved MelB ([2]; 0° C.): high MelB protein extraction efficiency
amount of MelB protein remaining dissolved in aqueous solution ([2]; 55° C.): approximately 15%
amount of dissolved MelB ([2]; 65° C.): very small amount of the protein remained
maintenance of ligand-binding characteristics of LeuT [3]: continuous structural collapse of the solubilized transporter
